Earlier results, collected in patent US20230021879A1, “SYNTHESIS OF 3 -RNA OLIGONUCLEOTIDES” (ALNYLAM PHARMACEUTICALS, INC., priority 2019, published 2023).

Target: P-glycoprotein 1 (P-gp) (Homo sapiens, UniProt P08183)
Conditions: earlier studies

Sequence of P-glycoprotein 1 (P-gp) (P08183 whole entry, species assumed): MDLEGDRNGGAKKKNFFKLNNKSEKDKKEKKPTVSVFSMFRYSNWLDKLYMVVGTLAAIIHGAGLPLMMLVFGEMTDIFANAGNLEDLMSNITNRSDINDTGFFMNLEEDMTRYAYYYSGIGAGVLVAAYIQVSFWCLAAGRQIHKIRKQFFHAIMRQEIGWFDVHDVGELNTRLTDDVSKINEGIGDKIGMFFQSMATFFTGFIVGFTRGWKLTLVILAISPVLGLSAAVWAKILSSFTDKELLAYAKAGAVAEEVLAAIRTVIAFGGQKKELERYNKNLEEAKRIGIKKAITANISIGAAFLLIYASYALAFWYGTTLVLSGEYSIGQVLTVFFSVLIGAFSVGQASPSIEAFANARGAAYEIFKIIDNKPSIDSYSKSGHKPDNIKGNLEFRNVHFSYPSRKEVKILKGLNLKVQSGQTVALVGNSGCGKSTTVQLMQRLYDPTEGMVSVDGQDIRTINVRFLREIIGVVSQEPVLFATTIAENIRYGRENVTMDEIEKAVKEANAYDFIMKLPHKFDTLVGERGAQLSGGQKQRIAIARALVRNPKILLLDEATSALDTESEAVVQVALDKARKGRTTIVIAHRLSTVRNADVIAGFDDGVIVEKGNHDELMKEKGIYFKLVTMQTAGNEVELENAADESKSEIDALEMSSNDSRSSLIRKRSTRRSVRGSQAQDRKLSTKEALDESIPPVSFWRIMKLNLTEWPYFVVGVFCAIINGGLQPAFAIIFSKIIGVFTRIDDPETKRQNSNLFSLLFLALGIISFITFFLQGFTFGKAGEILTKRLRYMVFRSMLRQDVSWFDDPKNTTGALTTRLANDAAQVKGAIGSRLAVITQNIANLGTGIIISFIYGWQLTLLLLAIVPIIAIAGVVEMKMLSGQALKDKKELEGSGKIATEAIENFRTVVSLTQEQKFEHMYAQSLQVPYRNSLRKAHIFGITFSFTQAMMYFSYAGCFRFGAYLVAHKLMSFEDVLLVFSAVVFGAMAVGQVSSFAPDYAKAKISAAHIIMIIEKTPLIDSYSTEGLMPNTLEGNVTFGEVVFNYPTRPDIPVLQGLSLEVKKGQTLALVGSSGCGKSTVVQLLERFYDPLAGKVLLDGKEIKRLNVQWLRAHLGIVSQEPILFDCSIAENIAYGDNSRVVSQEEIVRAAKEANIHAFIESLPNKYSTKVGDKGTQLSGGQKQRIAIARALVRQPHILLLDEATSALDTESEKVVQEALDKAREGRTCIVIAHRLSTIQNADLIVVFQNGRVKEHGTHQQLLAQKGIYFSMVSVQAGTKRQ

P-gp substrate status: poor substrate
Structure (SMILES): C[C@@H]1O[C@@H](O[C@H]2C[C@](O)(C(=O)CO)Cc3c(O)c4c(c(O)c32)C(=O)c2ccccc2C4=O)[C@H](I)[C@H](O)[C@H]1O [Annamycin, (7S,9S)-7-(((2R,3R,4R,5R,6S)-4,5-dihydroxy-3-iodo-6-methyltetrahydro-2H-pyran-2-yl)oxy)-6,9,11-trihydroxy-9-(2-hydroxyacetyl)-7,8,9,10-tetrahydrotetracene-5,12-dione]
